Data as given in ChEMBL document CHEMBL5226386, “Discovery and Biosynthesis of Glycosylated Cycloheximide from a Millipede-Associated Actinomycete” (J Nat Prod, 2023).
≈ marks a conversion by molar mass, not a printed value.

What was measured:
Cryptococcus neoformans = assay: Antifungal activity against Cryptococcus neoformans H99 assessed as inhibition of fungal growth incubated for 24 hrs by agar diffusion method; assay type: functional
Saccharomyces cerevisiae = assay: Antifungal activity against Saccharomyces cerevisiae BY4741 assessed as inhibition of fungal growth incubated for 24 hrs by agar diffusion method; assay type: functional
A549 = assay: Cytotoxicity against human A549 cells assessed as reduction in cell viability incubated for 48 hrs by CCK-8 assay; assay type: functional, cell-based; conditions: A549, 48 h
HeLa = assay: Cytotoxicity against human HeLa cells assessed as reduction in cell viability incubated for 48 hrs by CCK-8 assay; assay type: functional, cell-based
MCF7 = assay: Cytotoxicity against human MCF7 cells assessed as reduction in cell viability incubated for 48 hrs by CCK-8 assay; assay type: functional, cell-based; conditions: MCF7, 48 h

With `C[C@@H]1C/C(=C\CC2CC(=O)NC(=O)C2)C(=O)[C@@H](C)C1` the MIC (Cryptococcus neoformans) was greater than 32 µg/mL, the MIC (Saccharomyces cerevisiae) was greater than 32 µg/mL and the IC50 (A549) was greater than 20000 nM. It also gave an IC50 (HeLa) greater than 20000 nM and an IC50 (MCF7) greater than 20000 nM.
For `C[C@@H]1C[C@@H]([C@H](O)CC2CC(=O)NC(=O)C2)C(=O)[C@@H](C)C1` [CYCLOHEXIMIDE], the MIC (Cryptococcus neoformans) was 2 µg/mL (≈ 7.11 µM), the MIC (Saccharomyces cerevisiae) was 2 µg/mL (≈ 7.11 µM) and the IC50 (A549) was 670 nM. It also gave an IC50 (HeLa) of 1000 nM and an IC50 (MCF7) of 530 nM.
Work on `C[C@@H]1C[C@@H]([C@@H](CC2CC(=O)NC(=O)C2)O[C@H]2O[C@H](CO)[C@@H](O)[C@H](O)[C@H]2O)C(=O)[C@@H](C)C1` yielded an MIC (Cryptococcus neoformans) greater than 32 µg/mL, an MIC (Saccharomyces cerevisiae) greater than 32 µg/mL and an IC50 (A549) greater than 20000 nM. It also gave an IC50 (HeLa) greater than 20000 nM and an IC50 (MCF7) greater than 20000 nM.
`COc1cccc2c1C(=O)c1c(O)c3c(c(O)c1C2=O)C[C@@](O)(C(=O)CO)C[C@@H]3O[C@H]1C[C@H](N)[C@H](O)[C@H](C)O1` [DOXORUBICIN] showed an IC50 (A549) of 600 nM, an IC50 (HeLa) of 90 nM and an IC50 (MCF7) of 970 nM.
Work on `Cc1cc(C)c(O[C@@H]2O[C@@H](C)[C@H](O)[C@@H](O)[C@H]2O)c(C(=O)CC2CC(=O)NC(=O)C2)c1` yielded an MIC (Cryptococcus neoformans) greater than 32 µg/mL, an MIC (Saccharomyces cerevisiae) greater than 32 µg/mL and an IC50 (A549) greater than 20000 nM. It also gave an IC50 (HeLa) greater than 20000 nM and an IC50 (MCF7) greater than 20000 nM.
